From patent US5418238A, “17β-substituted 4-aza-5α-androstan-3-one derivatives” (Farmitalia Carlo Erba S.R.L., priority 1992, dated 1995)

What was measured:
5α-reductase [1] = target: T1, 5α-reductase (Homo sapiens, UniProt P31213); assay: In vitro assay of 5α-reductase inhibition (particulate fraction from hyperplastic human prostates, [14C]testosterone); format: biochemical; conditions: human prostate particulate fraction, 1 μM [14C]testosterone, pH 5.5, 37° C., 30 min
T1 construct: particulate fraction from homogenates of hyperplastic human prostates as the enzyme source; from tissue; host or cells: hyperplastic human prostate, particulate fraction (140,000 x g pellet of homogenate)
T1 sequence (P31213 1-254): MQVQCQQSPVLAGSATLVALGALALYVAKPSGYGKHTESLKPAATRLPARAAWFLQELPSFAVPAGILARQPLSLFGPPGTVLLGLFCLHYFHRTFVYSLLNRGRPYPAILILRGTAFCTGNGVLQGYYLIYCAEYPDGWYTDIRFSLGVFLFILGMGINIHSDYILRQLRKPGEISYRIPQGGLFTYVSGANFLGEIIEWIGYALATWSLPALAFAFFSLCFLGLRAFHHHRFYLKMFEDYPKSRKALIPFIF
Experimental: Inhibition of 5α-reductase was evaluated using the particulate fraction from homogenates of hyperplastic human prostates as the enzyme source. The particulate fraction was prepared centrifuging prostate homogenate at 140,000 x g. The resulting pellet, washed several times, was resuspended in buffer and stored at -80° C. in aliquots containing ≈10 mg protein/ml.
The assay for 5α-reductase was done in a final volume of 0.5 ml, in 40 mM TRIS-HCl buffer pH 5.5, containing I mM dithiothreitol, 5 mM NADPH, 1 μM [^14 C]testosterone, an aliquot of the enzyme preparation and various concentrations of the inhibitors. After 30 min incubation at 37° C. the reaction was terminated by addition of 2 ml cold diethyl ether and the organic phase was separated, evaporated under N2 and resuspended in ethyl acetate. Testosterone metabolites in this extract were separated in TLC on silica gel F 254 plates (Merck), using chloroform, acetone and n-hexane (2:1:2) as developing solvent system. Radioactivity on the plate was scanned and analysed from quantitative plots printed by a TLC-analyzer (Berthold). The fractional 5α-reduction of testosterone was calculated by relating the ^14 C-radioactivity in the 5α-reduced metabolites (5α-dihydrotesterone, […]) regions to the total radioactivity in the testosterone and 5α-reduced metabolites regions.

5α-reductase [2] = assay: In vivo inhibition of 5α-reductase (testosterone-induced prostate hypertrophy in castrated rats); design: species or system rat; conditions: castrated testosterone-implanted rats, once daily for 7 days, ventral prostate weight
Experimental: The standard test for the antiandrogenic effect in rats was used. Prepuberal 22-day-old male rats were castrated via scrotal incision under light ether anaesthesia. On the seventh day after orchiectomy, androgen replacement was performed via subcutaneous implantation of 1 cm-long Silastic® tube (Dow-Corning, model No. 602-265) filled with a mixture of 25% testosterone and 75% cholesterol. […] Twenty four hours after the last dose the rats were sacrificed and the ventral prostate was removed and weighed. Control animals (testosterone controls) received the vehicle (0.5 ml/kg of 0.5% Methocel/0.4% Tween 80). One group of castrated rats was not implanted with testosterone (castrated controls).
The mean percentage of inhibition of the T-induced hypertrophic response of the prostate was calculated according to the following formula: […]
where WTC, WCC and WI are the mean prostate weight of testosterone control, castrated control and inhibitor treated group, respectively.

Structure (SMILES)	IC50 (5α-reductase [1])	% Inhibition of prostate weight at 3 mg/kg/day p.o. (5α-reductase [2])
CC(NC(=O)[C@H]1CC[C@H]2[C@@H]3CC[C@H]4NC(=O)C=C[C@]4(C)[C@H]3CC[C@]12C)C(=O)C(F)(F)F (stereo partly drawn) [Compound 5, N-[1,1,1-trifluoro-2-oxobut-3-yl]3-oxo-4-aza-5α-androst-1-ene-17β-carboxamide]	16 nM	58%
CC(C)C(NC(=O)[C@H]1CC[C@H]2[C@@H]3CC[C@H]4NC(=O)C=C[C@]4(C)[C@H]3CC[C@]12C)C(=O)C(F)(F)F (stereo partly drawn) [Compound 7, N-[1,1,1-trifluoro-4-methyl-2-oxopent-3-yl]3-oxo-4-aza-5α-androst-1-ene-17β-carboxamide]	8 nM	–
CC(C)(NC(=O)[C@H]1CC[C@H]2[C@@H]3CC[C@H]4NC(=O)C=C[C@]4(C)[C@H]3CC[C@]12C)C(=O)C(F)(F)F [Compound 22, N-[1,1,1-trifluoro-3-methyl-2-oxobut-3-yl]3-oxo-4-aza-5α-androst-1-ene-17β-carboxamide]	14 nM	50%
